Measured values: PMC11931604 (Drug Development Research, 2025)
“Also recorded” adds a separate entry of the source. Where two headings read alike, the source gives them in different places.

How the values were obtained:
A/H3N2 (A/HK/7/87) = assay: microbe, parasite or virus in culture; format: cell-based, influenza A virus; details: for EC50: Influenza A virus, H3N2, MDCK; for anti-A/H3N2 activity (in words): MDCK cells
IBV (B/Ned/537/05) = assay: CPE reduction assay in MDCK cells, influenza B virus; format: cell-based
in vitro = details: dog
[1] = system: A/H1N1 (strain A/Ned/378/05); assay: CPE reduction assay in MDCK cells, influenza A/H1N1; format: cell-based; details: Influenza A virus
[2] = read-out: Antiviral EC50 A/H3N2 CPE
[3] = read-out: Antiviral EC50 A/H3N2 MTS
[4] = read-out: Antiviral EC50 IBV CPE
[5] = read-out: Antiviral EC50 IBV MTS
[6] = read-out: Antiviral EC50 A/H1N1 CPE
[7] = read-out: Antiviral EC50 A/H1N1 MTS

Compound	EC50 (A/H3N2 (A/HK/7/87); [2])	EC50 (A/H3N2 (A/HK/7/87); [3])	EC50 (IBV (B/Ned/537/05); [4])	EC50 (IBV (B/Ned/537/05); [5])	CC50 (in vitro)	EC50 [1, 6]	EC50 [1, 7]	anti-A/H3N2 activity (in words) (A/H3N2 (A/HK/7/87))
CCC1CCC2(CC1)SC(C)C(=O)N2NC(=O)c1ccc(C(C)(C)C)cc1 (stereo not drawn) [Compound 2d, 4‐(tert‐Butyl)‐N‐(8‐ethyl‐2‐methyl‐3‐oxo‐1‐thia‐4‐azaspiro[4.5]decan‐4‐yl)benzamide]	> 100 µM	> 100 µM	> 100 µM	> 100 µM	13 µM	> 100 µM	> 100 µM	–
CC1CCC2(CC1)SC(C)C(=O)N2NC(=O)c1ccc(C(C)(C)C)cc1 (stereo not drawn) [Compound 2c, 4‐(tert‐Butyl)‐N‐(2,8‐dimethyl‐3‐oxo‐1‐thia‐4‐azaspiro[4.5]decan‐4‐yl)benzamide]	2.4 ± 0.8 µM	1.3 ± 0.3 µM	> 100 µM	> 100 µM	39 ± 25 µM	> 100 µM	> 100 µM	–
CC1SC2(CCCCC2)N(NC(=O)c2ccc(C(C)(C)C)cc2)C1=O (stereo not drawn) [Compound 2a, 4‐(tert‐Butyl)‐N‐(2‐methyl‐3‐oxo‐1‐thia‐4‐azaspiro[4.5]decan‐4‐yl)benzamide]	> 100 µM	> 100 µM	> 100 µM	> 100 µM	92 µM	> 100 µM	> 100 µM	devoid of antiviral activity
CC(C)(C)c1ccc(C(=O)NN2C(=O)CSC23CCC(C(C)(C)C)CC3)cc1 (stereo not drawn) [Compound 1f, 4‐(tert‐Butyl)‐N‐(8‐(tert‐butyl)‐3‐oxo‐1‐thia‐4‐azaspiro[4.5]decan‐4‐yl)benzamide]	> 100 µM	> 100 µM	> 100 µM	> 100 µM	> 100 µM	> 100 µM	> 100 µM	–
CC(N)C12CC3CC(CC(C3)C1)C2 (stereo not drawn) [Rimantadine, reference compound]	0.7 µM	0.8 µM	> 200 µM	> 200 µM	> 200 µM	8 µM	8.7 µM	–
CC1CCCC2(C1)SC(C)C(=O)N2NC(=O)c1ccc(C(C)(C)C)cc1 (stereo not drawn) [Compound 2b, 4‐(tert‐Butyl)‐N‐(2,7‐dimethyl‐3‐oxo‐1‐thia‐4‐azaspiro[4.5]decan‐4‐yl)benzamide]	> 100 µM	> 100 µM	> 100 µM	> 100 µM	78 µM	> 100 µM	> 100 µM	devoid of antiviral activity
CCC(CC)O[C@@H]1C=C(C(=O)O)C[C@H](N)[C@H]1NC(C)=O [Oseltamivir carboxylate, reference compound]	0.8 µM	0.4 µM	0.8 µM	0.6 µM	> 100 µM	0.5 µM	0.4 µM	–
CCCC1CCC2(CC1)SC(C)C(=O)N2NC(=O)c1ccc(C(C)(C)C)cc1 (stereo not drawn) [Compound 2e, 4‐(tert‐Butyl)‐N‐(2‐methyl‐3‐oxo‐8‐propyl‐1‐thia‐4‐azaspiro[4.5]decan‐4‐yl)benzamide]	> 100 µM	> 100 µM	> 100 µM	> 100 µM	14 µM	> 100 µM	> 100 µM	–
CC1SC2(CCC(C(C)(C)C)CC2)N(NC(=O)c2ccc(C(C)(C)C)cc2)C1=O (stereo not drawn) [Compound 2f, 4‐(tert‐Butyl)‐N‐(8‐(tert‐butyl)‐2‐methyl‐3‐oxo‐1‐thia‐4‐azaspiro[4.5]decan‐4‐yl)benzamide]	> 100 µM	> 100 µM	> 100 µM	> 100 µM	> 100 µM	> 100 µM	> 100 µM	–
CCCC1CCC2(CC1)SCC(=O)N2NC(=O)c1ccc(C(C)(C)C)cc1 (stereo not drawn) [Compound 1e, 4‐(tert‐Butyl)‐N‐(3‐oxo‐8‐propyl‐1‐thia‐4‐azaspiro[4.5]decan‐4‐yl)benzamide]	> 100 µM	> 100 µM	> 100 µM	> 100 µM	> 100 µM	> 100 µM	> 100 µM	–
CC1CCCC2(C1)SCC(=O)N2NC(=O)c1ccc(C(C)(C)C)cc1 (stereo not drawn) [Compound 1b, 4‐(tert‐Butyl)‐N‐(7‐methyl‐3‐oxo‐1‐thia‐4‐azaspiro[4.5]decan‐4‐yl)benzamide]	> 100 µM	> 100 µM	> 100 µM	> 100 µM	11 µM	> 100 µM	> 100 µM	–
CCC1CCC2(CC1)SCC(=O)N2NC(=O)c1ccc(C(C)(C)C)cc1 (stereo not drawn) [Compound 1d, 4‐(tert‐Butyl)‐N‐(8‐ethyl‐3‐oxo‐1‐thia‐4‐azaspiro[4.5]decan‐4‐yl)benzamide]	> 100 µM	> 100 µM	> 100 µM	> 100 µM	> 100 µM	> 100 µM	> 100 µM	–
NC(=O)c1ncn([C@@H]2O[C@H](CO)[C@@H](O)[C@H]2O)n1 [Ribavirin, reference compound]	6.8 µM	1.3 µM	9 µM	5.3 µM	> 100 µM	8.9 µM	7.1 µM	–
CC1CCC2(CC1)SCC(=O)N2NC(=O)c1ccc(C(C)(C)C)cc1 (stereo not drawn) [Compound 1c, 4‐(tert‐Butyl)‐N‐(8‐methyl‐3‐oxo‐1‐thia‐4‐azaspiro[4.5]decan‐4‐yl)benzamide]	> 100 µM	> 100 µM	> 100 µM	> 100 µM	> 100 µM	> 100 µM	> 100 µM	inactive; also recorded: lacks anti‐A/H3N2 activity
CC(C)(C)c1ccc(C(=O)NN2C(=O)CSC23CCCCC3)cc1 [Compound 1a, 4‐(tert‐Butyl)‐N‐(3‐oxo‐1‐thia‐4‐azaspiro[4.5]decan‐4‐yl)benzamide]	> 100 µM	> 100 µM	> 100 µM	> 100 µM	> 100 µM	> 100 µM	> 100 µM	–
